Test results reported in PubChem BioAssay (NCI).
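Interpolation was linear, between the two tested concentrations surrounding the appropriate level; five concentrations were tested over 48 hours in 96-well plates. The concentration for 50% growth inhibition is given as GI50. The concentration for full growth arrest is given as TGI.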

Assays:
Assay in all cases: NCI-60 cell line screen, 48 h
786-0 renal = test system: 786-0 renal
A498 renal = test system: A498 renal
A549 NSCLC = test system: A549 NSCLC
ACHN renal = test system: ACHN renal
BT-549 breast = test system: BT-549 breast
CAKI-1 renal = test system: CAKI-1 renal
CCRF-CEM leukemia = test system: CCRF-CEM leukemia
COLO 205 colon = test system: COLO 205 colon
DU-145 prostate = test system: DU-145 prostate
HCC-2998 colon = test system: HCC-2998 colon
HCT-116 colon = test system: HCT-116 colon
HCT-15 colon = test system: HCT-15 colon
HL-60(TB) leukemia = test system: HL-60(TB) leukemia
HOP-62 NSCLC = test system: HOP-62 NSCLC
HOP-92 NSCLC = test system: HOP-92 NSCLC
HS 578T breast = test system: HS 578T breast
HT29 colon = test system: HT29 colon
IGROV1 ovarian = test system: IGROV1 ovarian
K-562 leukemia = test system: K-562 leukemia
KM12 colon = test system: KM12 colon
LOX IMVI melanoma = test system: LOX IMVI melanoma
M14 melanoma = test system: M14 melanoma
MALME-3M melanoma = test system: MALME-3M melanoma
MCF7 breast = test system: MCF7 breast
MDA-MB-231 breast = test system: MDA-MB-231 breast
MDA-MB-435 = test system: MDA-MB-435
MOLT-4 leukemia = test system: MOLT-4 leukemia
NCI-H226 lung = test system: NCI-H226 lung
NCI-H23 lung = test system: NCI-H23 lung
NCI-H460 lung = test system: NCI-H460 lung
NCI-H522 lung = test system: NCI-H522 lung
NCI/ADR-RES ovarian = test system: NCI/ADR-RES ovarian
OVCAR-3 ovarian = test system: OVCAR-3 ovarian
OVCAR-4 ovarian = test system: OVCAR-4 ovarian
OVCAR-5 ovarian = test system: OVCAR-5 ovarian
OVCAR-8 ovarian = test system: OVCAR-8 ovarian
PC-3 prostate = test system: PC-3 prostate
RPMI-8226 leukemia = test system: RPMI-8226 leukemia
RXF 393 renal = test system: RXF 393 renal
SF-268 CNS = test system: SF-268 CNS
SF-295 CNS = test system: SF-295 CNS
SF-539 CNS = test system: SF-539 CNS
SK-MEL-2 melanoma = test system: SK-MEL-2 melanoma
SK-MEL-28 melanoma = test system: SK-MEL-28 melanoma
SK-MEL-5 melanoma = test system: SK-MEL-5 melanoma
SK-OV-3 ovarian = test system: SK-OV-3 ovarian
SN12C renal = test system: SN12C renal
SNB-19 CNS = test system: SNB-19 CNS
SNB-75 CNS = test system: SNB-75 CNS
SW-620 colon = test system: SW-620 colon
T-47D breast = test system: T-47D breast
TK-10 renal = test system: TK-10 renal
U251 CNS = test system: U251 CNS
UACC-257 melanoma = test system: UACC-257 melanoma
UACC-62 melanoma = test system: UACC-62 melanoma
UO-31 renal = test system: UO-31 renal

SMILES: Cn1c([N+](=O)[O-])cnc1/C=C1\Oc2ccc(Br)cc2C1=O
- GI50 (786-0 renal): 557 nM
- TGI (786-0 renal): 2070 nM
- GI50 (A498 renal): 1720 nM
- TGI (A498 renal): 4670 nM
- GI50 (A549 NSCLC): 927 nM
- TGI (A549 NSCLC): 5200 nM
- GI50 (ACHN renal): 212 nM
- TGI (ACHN renal): 585 nM
- GI50 (BT-549 breast): 715 nM
- TGI (BT-549 breast): 4760 nM
- GI50 (CAKI-1 renal): 277 nM
- TGI (CAKI-1 renal): 950 nM
- GI50 (CCRF-CEM leukemia): 200 nM
- TGI (CCRF-CEM leukemia): 706 nM
- GI50 (COLO 205 colon): 925 nM
- TGI (COLO 205 colon): 3170 nM
- GI50 (DU-145 prostate): 338 nM
- TGI (DU-145 prostate): 933 nM
- GI50 (HCC-2998 colon): 995 nM
- TGI (HCC-2998 colon): 3620 nM
- GI50 (HCT-116 colon): 179 nM
- TGI (HCT-116 colon): 652 nM
- GI50 (HCT-15 colon): 193 nM
- TGI (HCT-15 colon): 657 nM
- GI50 (HL-60(TB) leukemia): 334 nM
- TGI (HL-60(TB) leukemia): 1570 nM
- GI50 (HOP-62 NSCLC): 1140 nM
- TGI (HOP-62 NSCLC): 3950 nM
- GI50 (HOP-92 NSCLC): 369 nM
- TGI (HOP-92 NSCLC): 2580 nM
- GI50 (HS 578T breast): 890 nM
- TGI (HS 578T breast): > 23400 nM
- GI50 (HT29 colon): 231 nM
- TGI (HT29 colon): 622 nM
- GI50 (IGROV1 ovarian): 469 nM
- GI50 (K-562 leukemia): 400 nM
- TGI (K-562 leukemia): 3280 nM
- GI50 (KM12 colon): 312 nM
- TGI (KM12 colon): 957 nM
- GI50 (LOX IMVI melanoma): 209 nM
- TGI (LOX IMVI melanoma): 543 nM
- GI50 (M14 melanoma): 445 nM
- TGI (M14 melanoma): 2100 nM
- GI50 (MALME-3M melanoma): 683 nM
- TGI (MALME-3M melanoma): 2210 nM
- GI50 (MCF7 breast): 330 nM
- TGI (MCF7 breast): 7970 nM
- GI50 (MDA-MB-231 breast): 374 nM
- TGI (MDA-MB-231 breast): 4810 nM
- GI50 (MDA-MB-435): 253 nM
- TGI (MDA-MB-435): 731 nM
- GI50 (MOLT-4 leukemia): 316 nM
- TGI (MOLT-4 leukemia): 7300 nM
- GI50 (NCI-H226 lung): 1380 nM
- TGI (NCI-H226 lung): 4890 nM
- GI50 (NCI-H23 lung): 432 nM
- TGI (NCI-H23 lung): 2350 nM
- GI50 (NCI-H460 lung): 253 nM
- TGI (NCI-H460 lung): 654 nM
- GI50 (NCI-H522 lung): 357 nM
- TGI (NCI-H522 lung): 1040 nM
- GI50 (NCI/ADR-RES ovarian): 609 nM
- TGI (NCI/ADR-RES ovarian): 74400 nM
- GI50 (OVCAR-3 ovarian): 276 nM
- TGI (OVCAR-3 ovarian): 690 nM
- GI50 (OVCAR-4 ovarian): 1580 nM
- TGI (OVCAR-4 ovarian): > 20200 nM
- GI50 (OVCAR-5 ovarian): 1480 nM
- TGI (OVCAR-5 ovarian): 5640 nM
- GI50 (OVCAR-8 ovarian): 266 nM
- GI50 (PC-3 prostate): 471 nM
- GI50 (RPMI-8226 leukemia): 352 nM
- TGI (RPMI-8226 leukemia): 2870 nM
- GI50 (RXF 393 renal): 416 nM
- TGI (RXF 393 renal): 1940 nM
- GI50 (SF-268 CNS): 299 nM
- TGI (SF-268 CNS): 933 nM
- GI50 (SF-295 CNS): 1700 nM
- TGI (SF-295 CNS): 7850 nM
- GI50 (SF-539 CNS): 922 nM
- TGI (SF-539 CNS): 3280 nM
- GI50 (SK-MEL-2 melanoma): 445 nM
- TGI (SK-MEL-2 melanoma): 1960 nM
- GI50 (SK-MEL-28 melanoma): 532 nM
- TGI (SK-MEL-28 melanoma): 2870 nM
- GI50 (SK-MEL-5 melanoma): 213 nM
- TGI (SK-MEL-5 melanoma): 586 nM
- GI50 (SK-OV-3 ovarian): 1450 nM
- TGI (SK-OV-3 ovarian): 6080 nM
- GI50 (SN12C renal): 421 nM
- TGI (SN12C renal): 4160 nM
- GI50 (SNB-19 CNS): 1190 nM
- TGI (SNB-19 CNS): 6170 nM
- GI50 (SNB-75 CNS): 1040 nM
- TGI (SNB-75 CNS): 4450 nM
- GI50 (SW-620 colon): 157 nM
- TGI (SW-620 colon): 537 nM
- GI50 (T-47D breast): 5410 nM
- TGI (T-47D breast): > 75900 nM
- GI50 (TK-10 renal): 671 nM
- TGI (TK-10 renal): 2640 nM
- GI50 (U251 CNS): 466 nM
- TGI (U251 CNS): 2540 nM
- GI50 (UACC-257 melanoma): 854 nM
- TGI (UACC-257 melanoma): 4070 nM
- GI50 (UACC-62 melanoma): 993 nM
- TGI (UACC-62 melanoma): 2680 nM
- GI50 (UO-31 renal): 240 nM
- TGI (UO-31 renal): 765 nM
